Laboratory results published in patent publication US20250099491A1, “PREVENTION OR TREATMENT OF CARDIOVASCULAR DISEASES WITH HIGH PENETRATION PRODRUGS OF ASPIRIN AND OTHER NSAIDS” (Techfields Inc., priority 2022, published 2025).
Like-named read-outs stand apart in the source and are kept apart here.

Tests used:
[1] = rabbit
[2] = system: rats with acute ischemia induced by Middle Cerebral Artery Occlusion (MCAO); assay: Example 14: acute ischemia induced by middle cerebral artery occlusion (MCAO) in rats; type: in vivo, rat; conditions: for infarct volume: Day 14 after MCAO, TTC staining, mean±SEM; for reduction of infarct volumes: comparators: oral 60 mg/kg bid, Edaravone 3 mg/kg i.v. q.d.
[3] = system: rats with acute ischemia induced by Middle Cerebral Artery Occlusion (MCAO); assay: Example 18: acute ischemia induced by MCAO in rats; type: in vivo, rat; conditions: for infarct volume: Day 14 after MCAO, TTC staining, mean±SEM; for reduction of infarct volumes: comparators: oral 60 mg/kg bid, Edaravone 3 mg/kg i.v. q.d.
[4] = system: rats with acute ischemia induced by Middle Cerebral Artery Occlusion (MCAO); assay: Example 15: acute ischemia induced by MCAO in rats; type: in vivo, rat; conditions: for infarct volume: Day 14 after MCAO, TTC staining, mean±SEM; for reduction of infarct volumes: comparators: oral 60 mg/kg bid, Edaravone 3 mg/kg i.v. q.d.
[5] = system: rats with acute ischemia induced by Middle Cerebral Artery Occlusion (MCAO); assay: Example 17: acute ischemia induced by MCAO in rats; type: in vivo, rat; conditions: for infarct volume: Day 14 after MCAO, TTC staining, mean±SEM; for reduction of infarct volumes: comparators: oral 60 mg/kg bid, Edaravone 3 mg/kg i.v. q.d.
[6] = system: rats with acute ischemia induced by Middle Cerebral Artery Occlusion (MCAO); assay: Example 16: acute ischemia induced by MCAO in rats; type: in vivo, rat; conditions: for infarct volume: Day 14 after MCAO, TTC staining, mean±SEM; for reduction of infarct volumes: comparators: oral 60 mg/kg bid, Edaravone 3 mg/kg i.v. q.d.; for mortalities: deaths of animals in group
[7] = system: middle cerebral artery (MCA) thrombosis model of monkeys; assay: Example 19: middle cerebral artery (MCA) thrombosis model of monkeys; conditions: aspirin 20 mg/kg/time oral, twice a day
Procedure: Aspirin was administered orally by gavage using a nasal catheter with a disposal syringe. The catheter was inserted into the stomach through the mouth. The treatment was once per day of MCA thrombosis (day 0), twice per day for 27 days.
The monkeys that had been fastened for at least 12 h were anesthetized with intramuscular administration of ketamine hydrochloride (20 mg/kg), and placed on an operation-bed. Anesthesia was continued with 1.0% isoflurane in O2 gas until 30 min. The inhalation anesthesia was performed with anesthesia machines (SN23402, Hallowell engineering and manufacturing corporation, USA) and respirators (SN23402, Hallowell engineering and manufacturing corporation, USA), and placed on an operation-bed. During anesthesia, body temperature of the animals (rectal temperature) was controlled between 37.0±0.5° C. by heating mattresses (XMTA-7000, Delixi Electric., Ltd.).
Under anesthesia, the left eye was enucleated using a bipolar coagulation device (Valleylab Force 1C, USA). A craniotomy was then performed supralaterally to the left side of the optic nerve. The next day animals were anesthetized with ketamine hydrochloride (20 mg/kg) and the dura and subarachnoid membrane were opened. MCA thrombosis was induced by photochemical reaction. The proximal part of the main MCA trunk. was irradiated with green light wave length 532 nm achieved by use of a xenon lamp (GL532T3-100FC, Shanghai Laser& Optics Century Col., Ltd.). The irradiation was directed by a 3-mm diameteroptic fiber mounted on a micromanipulator. Irradiation was started and rose bengal 20 mg/kg was injected intravenously. Photoirradiation was continued for a 30 min. The dura was then covered with a moist gelatin sponge.
Neurological deficits (see Table 3) were assessed 1, 3, 5, 7, 14 and 28 days after the onset of MCA thrombosis (day 0) in a blind manner. The neurological deficits was scored on consciousness, sensory system, motor system and skeletal muscle coordination, and the total neurological deficit score was calculated by summing the scores of consciousness, sensory system, motor system and skeletal muscle coordination.
The survival monkeys were deeply anesthetized with pentobarbital sodium (35 mg/kg, i.v.) 28 days after the onset of MCA thrombosis. After cutting the atriums of heart, 200 mL of heparinized physiological saline (10 U/mL) was allowed to perfuse the brain via the common carotid arteries, and followed by perfusion of 200 mL of 10% formalin neutral buffer solution. The whole brain was removed, and then was put in pathology sample preservation packs containing 10% formalin neutral buffer solution. For each brain sample, the coronal sections (thickness: 7-8 μm) per site were prepared at 10 sites at 4-mm intervals. Slices per site were each stained with H & E reagent.
Measurement of cerebral infarct lesions was carried out in a blind manner. The infarct lesions in the ischemic side are defined as a necrotic portion compared with that in the contralateral side. The infarcted area of left cerebral hemisphere (A) in the cross-sections was traced and measured using a computerized image analysis system (image J).
When the infarct size of 2 serial section was made into D and D′, the infarcted volume using the thickness (4 mm) of a section is measured in the following formula:
Total infarcted volume is calculated by summing the infarcted volume of the 10 serial sections.

[8] = system: myocardial infarction in minipigs; assay: Example 20: myocardial infarction efficacy study in minipigs (circumflex coronary artery thrombosis); type: in vivo, minipig; conditions: aspirin 20 mg/kg/time oral, twice a day
Procedure: Total 24 male minipigs were used for this study. […] The minipigs were already quarantined and acclimated. Before animal being transferred from holding colony, a physical examination was performed and the acceptability of the animals for the study was evaluated by veterinary. […] [table] […] Under anesthesia, thoracotomy was carried out and the circumflex coronary artery of the heart was exposed. The circumflex coronary artery thrombosis was induced by photochemical reaction. […] Photoirradiation was continued for a 30 min. […] After cutting the femoral artery, thoracotomy was carried out and the heart was removed. […] TTC regent for 5 min. After staining with TTC reagent, the photograph of the heart 5 blocks was taken. All blocks were immersed in 10% formalin neutral buffer solution. The 2nd block appeared large necrotic area was cut sections (thickness: 7-8 μm). Slice was stained with H & E reagent. […] The infarct lesions were defined as a necrotic portion of TTC stained blocks. […] The histopathological alteration (necrosis, inflammation, granulation, etc.) of myocardial infarction was examined using H & E stained slides.

[9] = high dose 60 mg/kg topical bid 14 days
[10] = high dose group compared to vehicle group
[11] = high dose groups vs vehicle group
[12] = low dose 15 mg/kg topical bid 14 days
[13] = low, middle and high dose groups, Day 5-14, vs vehicle group by t-test
[14] = middle dose 30 mg/kg topical bid 14 days

Compound	The cumulative amount of test compounds ([1]; 1 h) [mg]	The cumulative amount of test compounds ([1]; 2 h) [mg]	The cumulative amount of test compounds ([1]; 4 h) [mg]	The cumulative amount of test compounds ([1]; 8 h) [mg]	further results
CCN(CC)CCOC(=O)c1ccccc1OC(=O)c1ccccc1O.Cl [Compound-16, 2-(diethylamino)ethyl 2-(2-hydroxybenzoyl)oxybenzoate hydrochloride]	0.37	0.87	1.71	3.56	
O=C(Oc1ccccc1C(=O)O)c1ccccc1O [Compound-18, 2-(2-hydroxybenzoyl)oxybenzoic acid, reference compound]	0.000	0.000	0.001	0.001	
Cl.O=C(Oc1ccccc1C(=O)OCC1CCCN1)c1ccccc1O (stereo not shown) [Compound-17, (pyrrolidin-2-yl)methyl 2-(2-hydroxybenzoyl)oxybenzoate hydrochloride]	0.32	0.68	1.39	2.97	
CC1=NN(c2ccccc2)C(=O)C1 [Edaravone, reference compound]					infarct volume ([2]; 3 mg/kg i.v. q.d. 14 days): 38.07%±2.031; reduction of infarct volumes [2]: little reduction; infarct volume ([3]; 3 mg/kg i.v. q.d. 14 days): 41.33%±2.792; reduction of infarct volumes [3]: little reduction; infarct volume ([4]; 3 mg/kg i.v. q.d. 14 days): 39.94%±2.256; reduction of infarct volumes [4]: little reduction; infarct volume ([5]; 3 mg/kg i.v. q.d. 14 days): 40.35%±2.078; reduction of infarct volumes [5]: little reduction; infarct volume ([6]; 3 mg/kg i.v. q.d. 14 days): 39.27%±2.513; reduction of infarct volumes [6]: little reduction
CCN(CC)CCOC(=O)c1cc(-c2ccc(F)cc2F)ccc1O.Cl [Compound-10, 2-(diethylamino)ethyl 2′,4′-difluoro-4-hydroxyl-[1,1′-biphenyl]-3-carboxylate hydrochloride]	0.49	1.03	2.12	4.39	
Cl.O=C(OCC1CCCN1)c1cc(-c2ccc(F)cc2F)ccc1O (stereo not shown) [Compound-11, (pyrrolidin-2-yl)methyl 2′,4′-difluoro-4-hydroxyl-[1,1′-biphenyl]-3-carboxylate hydrochloride]	0.43	0.99	2.01	4.05	
CCN(CC)CCOC(=O)c1ccccc1O.Cl [Compound-4, 2-(diethylamino)ethyl hydroxybenzoate hydrochloride]					infarct volume [4, 9]: 34.56%±2.563; neuroprotective effect on brain ischemic injury [4, 10]: good neuroprotective effect; neurological deficit scores [4, 11]: show differences significantly; infarct volume [4, 12]: 37.01%±2.053; body weight [4, 13]: increased; infarct volume [4, 14]: 35.77%±1.875
CC(=O)Oc1ccc(-c2ccc(F)cc2F)cc1C(=O)OCC1CCCN1.Cl (stereo not shown) [Compound-8, (pyrrolidin-2-yl)methyl 2′,4′-difluoro-4-acetoxy-[1,1′-biphenyl]-3-carboxylate hydrochloride]	0.45	0.98	2.02	4.11	infarct volume [5, 9]: 33.53%±1.986; neuroprotective effect on brain ischemic injury [5, 10]: good neuroprotective effect; neurological deficit scores [5, 11]: show differences significantly; infarct volume [5, 12]: 37.52%±2.789; body weight [5, 13]: increased; infarct volume [5, 14]: 35.02%±2.827
CCN(CC)CCOC(=O)c1cc(-c2ccc(F)cc2F)ccc1OC(C)=O.Cl [Compound-7, 2-(diethylamino)ethyl 2′,4′-difluoro-4-acetoxy-[1,1′-biphenyl]-3-carboxylate hydrochloride]	0.53	1.07	2.16	4.33	
CCN(CC)CCOC(=O)c1ccccc1OC(=O)c1ccccc1OC(C)=O.Cl [Compound-13, 2-(diethylamino)ethyl 2-(2-acetoxybenzoyl)oxybenzoate hydrochloride]	0.46	0.97	1.99	3.89	
CC(=O)Oc1ccccc1C(=O)Oc1ccccc1C(=O)O [Compound-15, 2-(2-acetoxybenzoyl)oxybenzoic acid, reference compound]	0.000	0.000	0.001	0.001	infarct volume ([3]; 60 mg/kg oral bid 14 days): 39.25%±2.981; reduction of infarct volumes [3]: little reduction
(pyrrolidin-2-yl)methyl acetoxybenzoate hydrochloride [Compound-2]					mortalities ([6]; high dose 60 mg/kg topical bid): 0 of 25; infarct volume [6, 12]: 33.11%±2.212; neuroprotective effect on brain ischemic injury ([6]; low, middle and high dose groups compared to vehicle group): good neuroprotective effect; neurological deficit scores ([6]; low, middle and high dose groups vs vehicle group): show differences significantly; body weight [6, 13]: increased; infarct volume [6, 14]: 27.03%±2.123; mortalities ([6]; middle dose 30 mg/kg topical bid): 0 of 25
CC(=O)Oc1ccc(-c2ccc(F)cc2F)cc1C(=O)O [Compound-9, 2′,4′-difluoro-4-acetoxy-[1,1′-biphenyl]-3-carboxylic acid, reference compound]	0.000	0.000	0.001	0.002	infarct volume ([5]; 60 mg/kg oral bid 14 days): 38.95%±2.176; reduction of infarct volumes [5]: little reduction
CC(=O)Oc1ccccc1C(=O)O [Compound-3, Aspirin]	0.000	0.001	0.002	0.003	infarct volume ([2]; 60 mg/kg oral bid 14 days): 36.27%±2.123; reduction of infarct volumes [2]: little reduction; infarct volume ([7]; Day 28 after MCA thrombosis): 1901 mm^3; Mortality rate [7]: 1/5; hemorrhage in the penumbra area [7]: showed hemorrhage; liquefaction in the infarct area (histopathology) [7]: moderate; neurological deficits ([7]; until 28 days after MCA thrombosis): tended to show slight recovery; infarct volume ([6]; 60 mg/kg oral bid 14 days): 37.99%±1.985; reduction of infarct volumes [6]: little reduction; degeneration of myocardium and myocardial necrosis (histopathology) [8]: moderate; infarct volume (myocardial) ([8]; 28 days after MCA thrombosis): 431 mm^3
O=C(O)c1ccccc1O [Compound-6, Salicylic acid, reference compound]	0.000	0.001	0.002	0.002	infarct volume ([4]; 60 mg/kg oral bid 14 days): 37.47%±2.856; reduction of infarct volumes [4]: little reduction
O=C(O)c1cc(-c2ccc(F)cc2F)ccc1O [Compound-12, 2′,4′-difluoro-4-hydroxyl-[1,1′-biphenyl]-3-carboxylic acid, reference compound]	0.000	0.001	0.001	0.003	
CC(=O)Oc1ccccc1C(=O)Oc1ccccc1C(=O)OCC1CCCN1.Cl (stereo not shown) [Compound-14, (pyrrolidin-2-yl)methyl 2-(2-acetoxybenzoyl)oxybenzoate hydrochloride]	0.37	0.84	1.82	3.69	infarct volume [3, 9]: 32.98%±2.546; mortalities ([3]; high dose 60 mg/kg topical bid, deaths of animals in group): 0 of 25; neuroprotective effect on brain ischemic injury [3, 10]: good neuroprotective effect; neurological deficit scores [3, 11]: show differences significantly; infarct volume [3, 12]: 36.87%±2.265; body weight [3, 13]: increased; infarct volume [3, 14]: 35.39%±2.479
